Usually IC50 stands for the concentration at which inhibition is half-maximal.

Drawing on patent US12486251B2 (PHARMABLOCK SCIENCES (NANJING) , INC., priority 2020, dated 2025), this text covers IC50 for 24 molecules.

Sequence of CBP recombinant proteins (Q92793 whole entry): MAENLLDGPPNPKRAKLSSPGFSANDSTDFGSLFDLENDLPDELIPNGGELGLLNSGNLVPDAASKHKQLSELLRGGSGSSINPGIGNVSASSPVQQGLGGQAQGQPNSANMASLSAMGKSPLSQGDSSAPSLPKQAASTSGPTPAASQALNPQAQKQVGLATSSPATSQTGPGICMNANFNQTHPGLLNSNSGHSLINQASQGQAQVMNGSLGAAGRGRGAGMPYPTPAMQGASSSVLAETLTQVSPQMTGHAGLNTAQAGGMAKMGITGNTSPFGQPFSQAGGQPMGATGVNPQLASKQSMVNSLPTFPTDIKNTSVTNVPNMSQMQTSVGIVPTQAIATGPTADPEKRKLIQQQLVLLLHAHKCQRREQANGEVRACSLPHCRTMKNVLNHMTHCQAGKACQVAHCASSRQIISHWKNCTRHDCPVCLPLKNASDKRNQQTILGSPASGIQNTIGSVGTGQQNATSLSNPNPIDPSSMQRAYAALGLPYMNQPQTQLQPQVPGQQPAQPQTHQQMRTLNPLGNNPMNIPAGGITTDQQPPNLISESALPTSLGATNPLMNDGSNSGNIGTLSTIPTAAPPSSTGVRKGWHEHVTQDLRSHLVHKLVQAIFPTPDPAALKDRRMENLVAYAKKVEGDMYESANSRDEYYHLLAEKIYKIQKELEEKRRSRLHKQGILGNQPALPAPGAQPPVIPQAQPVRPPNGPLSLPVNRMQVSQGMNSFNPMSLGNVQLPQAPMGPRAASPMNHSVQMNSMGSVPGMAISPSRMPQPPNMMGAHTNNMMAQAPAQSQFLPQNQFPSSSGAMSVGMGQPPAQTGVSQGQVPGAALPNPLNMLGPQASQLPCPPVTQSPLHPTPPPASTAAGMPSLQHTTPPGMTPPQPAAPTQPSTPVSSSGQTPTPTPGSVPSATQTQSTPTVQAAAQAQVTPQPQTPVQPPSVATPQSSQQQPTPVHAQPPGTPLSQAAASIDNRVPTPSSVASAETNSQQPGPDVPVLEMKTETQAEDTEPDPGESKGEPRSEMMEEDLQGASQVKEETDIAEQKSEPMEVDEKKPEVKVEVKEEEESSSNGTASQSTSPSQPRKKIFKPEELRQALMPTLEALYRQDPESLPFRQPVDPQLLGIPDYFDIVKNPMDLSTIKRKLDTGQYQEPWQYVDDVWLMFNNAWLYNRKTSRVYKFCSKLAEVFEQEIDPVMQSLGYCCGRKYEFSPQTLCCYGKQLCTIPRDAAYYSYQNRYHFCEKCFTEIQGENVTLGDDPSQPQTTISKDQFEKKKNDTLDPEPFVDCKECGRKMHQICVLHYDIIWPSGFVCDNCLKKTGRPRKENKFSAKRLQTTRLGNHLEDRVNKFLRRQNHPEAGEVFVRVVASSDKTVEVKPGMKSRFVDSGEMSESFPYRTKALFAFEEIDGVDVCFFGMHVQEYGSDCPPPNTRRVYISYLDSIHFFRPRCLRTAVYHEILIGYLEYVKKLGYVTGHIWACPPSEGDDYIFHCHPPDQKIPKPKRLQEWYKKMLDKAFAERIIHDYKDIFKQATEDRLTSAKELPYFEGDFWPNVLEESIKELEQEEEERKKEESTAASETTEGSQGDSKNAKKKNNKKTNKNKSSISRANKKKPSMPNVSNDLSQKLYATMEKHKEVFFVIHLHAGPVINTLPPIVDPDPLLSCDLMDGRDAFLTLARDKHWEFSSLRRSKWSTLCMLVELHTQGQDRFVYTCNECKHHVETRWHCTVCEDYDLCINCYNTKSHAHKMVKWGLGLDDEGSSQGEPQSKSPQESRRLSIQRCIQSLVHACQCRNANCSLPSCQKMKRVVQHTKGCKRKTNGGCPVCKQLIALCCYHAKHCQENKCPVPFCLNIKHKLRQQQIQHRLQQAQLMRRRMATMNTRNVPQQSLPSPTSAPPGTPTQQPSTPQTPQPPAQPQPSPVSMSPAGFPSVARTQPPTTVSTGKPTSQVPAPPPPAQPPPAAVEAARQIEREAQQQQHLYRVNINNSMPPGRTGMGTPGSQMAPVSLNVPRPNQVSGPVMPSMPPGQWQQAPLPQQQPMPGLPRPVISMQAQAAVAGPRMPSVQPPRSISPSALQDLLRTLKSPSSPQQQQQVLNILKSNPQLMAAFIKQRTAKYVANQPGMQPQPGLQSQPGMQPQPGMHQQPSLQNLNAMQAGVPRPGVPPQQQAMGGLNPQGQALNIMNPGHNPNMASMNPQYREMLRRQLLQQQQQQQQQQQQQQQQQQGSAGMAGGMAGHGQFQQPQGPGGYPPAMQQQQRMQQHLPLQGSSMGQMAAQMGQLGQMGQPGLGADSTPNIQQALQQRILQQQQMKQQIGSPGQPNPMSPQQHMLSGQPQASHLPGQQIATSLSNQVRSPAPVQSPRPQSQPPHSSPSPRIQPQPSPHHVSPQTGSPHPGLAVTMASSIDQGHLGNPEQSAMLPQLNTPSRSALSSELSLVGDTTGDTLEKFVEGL

For the assay, the target named is CBP recombinant proteins (Homo sapiens (Human), UniProt Q92793). The experiment in a line: Competitive HTRF assay for affinity to CBP recombinant protein. Type of assay: binding. The conditions noted are these: His-tagged CBP 5 nM, biotin-labeled ligand 50 nM, 1% DMSO. On the procedure:
The affinity of the compounds synthesized in the present patert to the CBP recombinant proteins was determined by competitive HTRF method. His-tagged cyclic adenosine monophosphate response element binding protein (CREB-binding protein, CBP) was expressed in Escherichia coli system and further purified. CBP biotinylated ligands were all self-made. The BL21 star (DE3) competert cells transfected with His-tagged CBP protein genes at N-terminal were cultured at 37° C. for 16 h until the OD value was between 0.6 and 0.8, induced by 0.5 mM of IPTG and cultured overnight. The supernatant of cell lysate was purified by a Ni-ion affinity column and a Superdex75 molecular sieve column sequentially. The purity of resulting CBP proteins was 95%. The fluorescent donor reagent MAb Anti 6HIS—Eu cryptate Gold (Cisbio #61HI2KLA), the receptor reagent Streptavidin-XL665 (#610SAXLA) and the detection buffer (#62SDBRDD) required for HTRF were obtained from CISBIO BIOASSAYS (Codolet, France). Tris(2-carboxyethyl)phosphine hydrochloride (TCEP), sodium chloride, adenosine triphosphate (ATP), Tween-20, dimethylsulfoxide (DMSO), bovine serum albumin (BSA) and HEPES buffer were obtained from SIGMA at the highest level commercially available.
The general procedure of the competitive HTRF assay for the affinity to CBP recombinant proteins is as follows: 0.05% Tween-20 and 1 mM of TCEP were added immediately before the assay, and the assay was performed in a buffer consisting of 0.1 mg/ml BSA, 50 mM of HEPES and 5 mM of NaCl of pH 7.5. 2.5 μL of compound solution in a determination buffer with 4% DMSO and 5 μL of CBP solution in a determination buffer were added to a white low-volume 384-well microtiter plate, incubated at room temperature for 20 min, and then incubated at room temperature for 40 min by adding 2.5 μL of biotin-labeled ligand solution to the determination buffer. The final concentrations of CBP, biotin-labeled ligand and DMSO were 5 nM, 50 nM and 1%, respectively. Then, 5 μL of MAb Anti 6HIS—Eu cryptate Gold and […] of Streptavidin-XL665 in detection buffers from the manufacturer were added to the mixture, and the mixture was incubated for another 60 min. The final concentration of Streptavidin-XL665 was 12.5 nM, and MAb Anti 6HIS—Eu cryptate Gold was diluted according to the final concentration provided by the supplier. The multimode reader Spark from TECAN (Mannedorf, Switzerland) was used to read the plate to detect the homogeneous time-resolved fluorescence intensity of two groups, in which the excitation wavelength was 320 nm and the emission wavelengths were 665 nm and 620 nm. The IC50 value of the inhibitor was obtained by fitting fluorescence intensity ratios at 665 nm/620 nm with respect to the inhibitor concentration in an S-shaped dose-response curve by using Prism 7 (La Jolla, 15 CA).
(In general: In TR-FRET formats the signal depends on donor and acceptor labels being close together.)
As to `CNC(=O)c1cc2cc(N3CCOC3=O)ccc2c(N2CCCc3cc(-c4cnn(C)c4)c(C(F)F)cc32)n1` [Example 25, 1-[7-difluoromethyl-6-(1-methyl-1H-pyrazol-4-yl)-3,4-dihydro-2H-quinolin-1-yl]-6-(2-oxo-oxazolidin-3-yl)-isoquinoline-3-carboxylic acid methylamide], the IC50 was 4.2 nM.

On to `CNC(=O)c1cc2cc(N3CCCS3(=O)=O)ccc2c(N2CCCc3cc(-c4cnn(C)c4)c(C(F)F)cc32)n1` [Example 26, 1-(7-(difluoromethyl)-6-(1-methyl-1H-pyrazol-4-yl)-3,4-dihydroquinolin-1(2H)-yl)-6-(1,1-dioxyisothiazolidin-2-yl)-N-methyliso-quinoline-3-carboxamide], for which the IC50 came out at 11 nM. To `CNC(=O)c1cc2cc(N3CCN(C)CC3=O)ccc2c(N2CCCc3cc(-c4cnn(C)c4)c(C(F)F)cc32)n1` [Example 27, 1-[7-difluoromethyl-6-(1-methyl-1H-pyrazol-4-yl)-3,4-dihydro-2H-quinolin-1-yl]-6-(4-methyl-2-oxo-piperazin-1-yl)-isoquinoline-3-carboxylic acid methylamide] belongs 3.3 nM; to `CNC(=O)c1cc2cc(N3CCOCC3=O)ccc2c(N2CCCc3cc(-c4cnn(C)c4)c(C(F)F)cc32)n1` [Example 28, 1-[7-difluoromethyl-6-(1-methyl-1H-pyrazol-4-yl)-3,4-dihydro-2H-quinolin-1-yl]-6-(3-oxo-morpholin-4-yl)-isoquinoline-3-carboxylic acid methylamide], 5.3 nM. In the case of `CNC(=O)c1cc2cc(C3CCCO3)ccc2c(N2CCCc3cc(-c4cnn(C)c4)c(C(F)F)cc32)n1` (stereo not drawn) [Example 29, 1-[7-difluoromethyl-6-(1-methyl-1H-pyrazol-4-yl)-3,4-dihydro-2H-quinolin-1-yl]-6-(tetrahydrofuran-2-yl)-isoquinoline-3-carboxylic acid methylamide], the IC50 was 16 nM.

Turning to `CNC(=O)c1cc2ccccc2c(N2CCCc3cc(-c4cncnc4)c(C(F)F)cc32)n1` [Example 30, 1-(7-difluoromethyl-6-pyrimidine-5-yl-3,4-dihydro-2H-quinolin-1-yl)-isoquinoline-3-carboxylic acid methylamide], the concentration for half-maximal inhibition (IC50) was found to be 22 nM. To `CNC(=O)c1cc2ccccc2c(N2CCCc3cc(C4=CCOCC4)c(C(F)F)cc32)n1` [Example 31, 1-[7-difluoro-methyl-6-(3,6-dihydro-2H-pyran-4-yl)-3,4-dihydro-2H-quino-lin-1-yl]-iso-quinoline-3-carboxylic acid methylamide] belongs 49 nM; to `CCn1cc(-c2cc3c(cc2C(F)F)N(c2nc(C(=O)NC)cc4ccccc24)CCC3)cn1` [Example 32, 1-[7-difluoro-methyl-6-(1-ethyl-1H-pyrazol-4-yl)-3,4-dihydro-2H-quinolin-1-yl]-isoquino-line-3-carboxylic acid methylamide], 36 nM; to `CNC(=O)c1cc2ccccc2c(N2CCCc3cc(-c4cnn(C5CC5)c4)c(C(F)F)cc32)n1` [Example 33, 1-[6-(1-cyclo-propyl-1H-pyrazol-4-yl)-7-difluoromethyl-3,4-dihydro-2H-quino-lin-1-yl]-iso-quinoline-3-carboxylic acid methylamide], 44 nM. To `CNC(=O)c1cc2ccccc2c(N2CCCc3cc(-c4ccn(C)n4)c(C(F)F)cc32)n1` [Example 34, 1-[7-difluoro-methyl-6-(1-methyl-1H-pyrazol-3-yl)-3,4-dihydro-2H-quinolin-1-yl]-isoquinoline-3-carboxylic acid methylamide] belongs 32 nM; to `CNC(=O)c1cc2ccccc2c(N2CCCc3cc(-c4cnn(CCO)c4)c(C(F)F)cc32)n1` [Example 35], 16 nM; to `CNC(=O)c1cc2cccnc2c(N2CCCc3cc(-c4cncnc4)c(C(F)F)cc32)n1` [Example 37, 8-(7-difluoro-methyl-6-pyrimidine-5-yl-3,4-dihydro-2H-quinolin-1-yl)-[1,7] naphthyridine-6-carboxylic acid methylamide], 16 nM. With `CNC(=O)c1cc2cccnc2c(N2CCCc3cc(-c4cnn(CS(C)(=O)=O)c4)c(C(F)F)cc32)n1` [Example 38, 8-[7-difluoro-methyl-6-(1-methanesulfonyl-methyl-1H-pyrazol-4-yl)-3,4-dihydro-2H-quinolin-1-yl]-[1,7] naphthyridine-6-carboxylic acid methylamide], the IC50 amounted to 14 nM. To `CNC(=O)c1cc2cccnc2c(N2CCCc3cc(-c4ccnnc4)c(C(F)F)cc32)n1` [Example 39, 8-(7-difluoro-methyl-6-pyrida-zine-4-yl-3,4-dihydro-2H-quinolin-1-yl)-[1,7] naphthyridine-6-carboxylic acid methylamide] belongs 13 nM.

For `CNC(=O)c1cc2ccccc2c(N2CCC(NC)c3cc(-c4cnn(C)c4)ccc32)n1` (stereo not drawn) [Example 40, 1-[4-methylamino-6-(1-methyl-1H-pyrazol-4-yl)-3,4-dihydro-2H-quinolin-1-yl]-isoquinoline-3-carboxylic acid methylamide], the IC50 was determined as 62 nM. Take `CNC(=O)c1cc2ccccc2c(N2CCC(O)c3cc(-c4cnn(C)c4)ccc32)n1` (stereo not drawn) [Example 41, 1-[4-hydroxy-6-(1-methyl-1H-pyrazol-4-yl)-3,4-dihydro-2H-quinolin-1-yl]isoquinoline-3-carboxylic acid methylamide]: the IC50 amounted to 57 nM.

Consider `CNC(=O)c1cc2ccccc2c(N2CCCc3cc(C4=CCNCC4)c(C(F)F)cc32)n1` [Example 42], for which the IC50 was determined as 50 nM. To `CNC(=O)c1cc2cccnc2c(N2CCCc3cc(C4=CCN(C(C)=O)CC4)c(C(F)F)cc32)n1` [Example 43, 8-[6-(1-acetyl-1,2,3,6-tetrahydropyridin-4-yl)-7-difluoromethyl-3,4-dihydro-2H-quinolin-1-yl]-[1,7]naphthyridine-6-carboxylic acid methylamide] belongs 6.7 nM; to `CNC(=O)c1cc2cccnc2c(N2CCCc3cc(C4=CCN(C)CC4)c(C(F)F)cc32)n1` [Example 44, 8-[7-difluoromethyl-6-(1-methyl-1,2,3,6-tetrahydropyridin-4-yl)-3,4-dihydro-2H-quinolin-1-yl]-[1,7]naphthyridine-6-carboxylic acid methylamide], 64 nM. Turning to `CNC(=O)c1cc2cccnc2c(N2CCCc3cc(C4=CCN(S(C)(=O)=O)CC4)c(C(F)F)cc32)n1` [Example 45, 8-[7-difluoromethyl-6-(1-methanesulfonyl-1,2,3,6-tetrahydropyridin-4-yl)-3,4-dihydro-2H-quinolin-1-yl]-[1,7]naphthyridine-6-carboxylic acid methylamide], the IC50 is 8.5 nM. As for `CNC(=O)c1cc2cccnc2c(N2CCCc3cc(C4CCN(C(C)=O)CC4)c(C(F)F)cc32)n1` [Example 46, 8-[6-(1-acetylpiperidin-4-yl)-7-difluoromethyl-3,4-dihydro-2H-quinolin-1-yl]-[1,7]naphthyridine-6-carboxylic acid methylamide], the IC50 is 5.4 nM. For `CNC(=O)c1cc2ncccc2c(N2CCCc3cc(C4CCN(C(C)=O)CC4)c(C(F)F)cc32)n1` [Example 47, 5-[6-(1-acetylpiperidin-4-yl)-7-difluoro-methyl-3,4-dihydro-2H-quinolin-1-yl]-[1,6] naphthyridine-7-carboxylic acid methylamide] the value was 31 nM; for `CNC(=O)c1cc2cnccc2c(N2CCCc3cc(C4CCN(C(C)=O)CC4)c(C(F)F)cc32)n1` [Example 48, 1-[6-(1-acetylpiperidin-4-yl)-7-difluoro-methyl-3,4-dihydro-2H-quinolin-1-yl]-[2,6] naphthyridine-3-carboxylic acid methylamide], 13 nM; for `CNC(=O)c1cc2ccncc2c(N2CCCc3cc(C4CCN(C(C)=O)CC4)c(C(F)F)cc32)n1` [Example 49, 1-[6-(1-acetylpiperidin-4-yl)-7-difluoro-methyl-3,4-dihydro-2H-quinolin-1-yl]-[2,7] naphthyridine-3-carboxylic acid methylamide], 12 nM.
